Legend:
[1] = test system: winter wheat; test: Test E winter wheat; format: in vivo, Triticum aestivum; conditions: Postemergence, 0 to 100 scale, 0 is no effect, 100 is complete control
Method in brief: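 For postemergence, application to 1- to 4-leaf plants growing in a 60:40 sandy loam–potting mix substrate. Formulation: non-phytotoxic solvent mixture plus surfactant. Untreated controls served as the reference for the visual rating after ~21–28 days.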

[2] = test system: soybean; test: Test B pre/postemergence soybean; format: in vivo, Glycine max; conditions: for Soybean plant response rating: scale of 0 to 10 where 0 is no effect and 10 is complete control
Method in brief: (§1)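 Response is a visual 0-to-10 score relative to untreated plants, where 0 means no effect and 10 means complete control, taken twelve to sixteen days after application. Treatments went onto soil at planting and onto foliage of 1- to 4-leaf plants, using a surfactant-containing non-phytotoxic solvent.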

[3] = test system: morningglory; test: Test B pre/postemergence morningglory; format: in vivo, Ipomoea hederacea; conditions: for Morningglory plant response rating: scale of 0 to 10 where 0 is no effect and 10 is complete control
Method in brief: as §1

[4] = test system: blackgrass; test: Test E blackgrass; format: in vivo, Alopecurus myosuroides; conditions: Preemergence
[5] = test system: cocklebur; test: Test B pre/postemergence cocklebur; format: in vivo, Xanthium strumarium; conditions: for Cocklebur plant response rating: scale of 0 to 10 where 0 is no effect and 10 is complete control
Method in brief: as §1

[6] = test system: winter barley; test: Test E winter barley; format: in vivo, Hordeum vulgare; conditions: Preemergence
[7] = test system: wild oat; test: Test E wild oat; format: in vivo, Avena fatua; conditions: Preemergence
[8] = test system: green foxtail; test: Test E green foxtail; format: in vivo, Setaria viridis; conditions: Preemergence
[9] = test system: winter wheat; test: Test E winter wheat; format: in vivo, Triticum aestivum; conditions: Preemergence
[10] = test system: pigweed; test: Test B pre/postemergence pigweed; format: in vivo, Amaranthus retroflexus; conditions: for Redroot pigweed plant response rating: scale of 0 to 10 where 0 is no effect and 10 is complete control
Method in brief: as §1

[11] = test system: Italian ryegrass; test: Test E Italian ryegrass; format: in vivo, Lolium multiflorum; conditions: Preemergence
[12] = Postemergence, Rate 125 g/ha, scale 0 to 10, 0 is no effect, 10 is complete control
[13] = Postemergence, Rate 250 g/ha, scale 0 to 10, 0 is no effect, 10 is complete control
[14] = Preemergence, Rate 62 g/ha, scale 0 to 10 (0 no effect, 10 complete control)
[15] = Rate 500 g/ha, Postemergence, scale 0 to 10, 0 no effect, 10 complete control
[16] = Rate 125 g/ha, 0 to 100 scale (0 no effect, 100 complete control)
[17] = Rate 500 g/ha, 0 to 100 scale (0 no effect, 100 complete control)

For `CC1CC1n1c(=O)on(C(=O)N(c2ccc(F)cc2F)C(C)C)c1=O` (stereo not drawn) [Compound 372], the “Plant response rating, Wheat (winter)” value ([1]; Rate 125 g/ha) was 65, the “Plant response rating, Wheat (winter)” value ([1]; Rate 250 g/ha) was 70 and the “Plant response rating, Wheat (winter)” value ([1]; Rate 500 g/ha) was 80. For the same compound, the “Plant response rating, Soybean” value [2, 12] was 1, the “Plant response rating, Soybean” value [2, 13] was 2 and the “Plant response rating, Soybean” value [2, 14] was 0. The “Soybean plant response rating (0 to 10 scale)” value ([2]; Preemergence, Rate 125 g/ha) was 0, the “Soybean plant response rating” value ([2]; Preemergence, Rate 250 g/ha) was 0 and the “Soybean plant response rating” value ([2]; Preemergence, Rate 500 g/ha) was 2. For the same compound, the “Soybean plant response rating” value ([2]; Rate 62 g/ha, Postemergence) was 1, the “Plant response rating, Soybean” value [2, 15] was 3 and the “Plant response rating, Morningglory” value [3, 12] was 7. For the same compound, the “Plant response rating, Morningglory” value [3, 13] was 7, the “Plant response rating, Morningglory” value [3, 14] was 0 and the “Morningglory plant response rating (0 to 10 scale)” value ([3]; Preemergence, Rate 125 g/ha) was 0. For the same compound, the “Morningglory plant response rating” value ([3]; Preemergence, Rate 250 g/ha) was 2, the “Morningglory plant response rating” value ([3]; Preemergence, Rate 500 g/ha) was 3 and the “Morningglory plant response rating” value ([3]; Rate 62 g/ha, Postemergence) was 5. For the same compound, the “Plant response rating, Morningglory” value [3, 15] was 10, the “Plant response rating, Blackgrass” value [4, 16] was 70 and the “Plant response rating, Blackgrass” value ([4]; Rate 250 g/ha, 0 to 100 scale) was 60. The “Plant response rating, Blackgrass” value [4, 17] was 100, the “Plant response rating, Cocklebur” value [5, 12] was 0 and the “Plant response rating, Cocklebur” value [5, 13] was 0. For the same compound, the “Plant response rating, Cocklebur” value [5, 14] was 0, the “Cocklebur plant response rating (0 to 10 scale)” value ([5]; Preemergence, Rate 125 g/ha) was 0 and the “Cocklebur plant response rating” value ([5]; Preemergence, Rate 250 g/ha) was 2. For the same compound, the “Cocklebur plant response rating” value ([5]; Preemergence, Rate 500 g/ha) was 2, the “Cocklebur plant response rating” value ([5]; Rate 62 g/ha, Postemergence) was 0 and the “Plant response rating, Cocklebur” value [5, 15] was 3. The “Plant response rating, Barley (winter)” value [6, 16] was 60, the “Plant response rating, Barley (winter)” value ([6]; Rate 250 g/ha, 0 to 100 scale, 0 no effect, 100 complete control) was 70 and the “Plant response rating, Barley (winter)” value [6, 17] was 70. The “Plant response rating, Wild oat” value [7, 16] was 50, the “Plant response rating, Wild oat” value ([7]; Rate 250 g/ha, 0 to 100 scale) was 60 and the “Plant response rating, Wild oat” value [7, 17] was 80. For the same compound, the “Plant response rating, Green foxtail” value [8, 16] was 60, the “Plant response rating, Green foxtail” value ([8]; Rate 250 g/ha, 0 to 100 scale) was 60 and the “Plant response rating, Green foxtail” value [8, 17] was 100. For the same compound, the “Plant response rating, Wheat (winter)” value [9, 16] was 60, the “Plant response rating, Wheat (winter)” value ([9]; Rate 250 g/ha, 0 to 100 scale) was 50 and the “Plant response rating, Wheat (winter)” value [9, 17] was 70. The “Plant response rating, Redroot pigweed” value [10, 12] was 3, the “Plant response rating, Redroot pigweed” value [10, 13] was 6 and the “Plant response rating, Redroot pigweed” value [10, 14] was 6. For the same compound, the “Redroot pigweed plant response rating (0 to 10 scale)” value ([10]; Preemergence, Rate 125 g/ha) was 10, the “Redroot pigweed plant response rating” value ([10]; Preemergence, Rate 250 g/ha) was 10 and the “Redroot pigweed plant response rating” value ([10]; Preemergence, Rate 500 g/ha) was 10. The “Redroot pigweed plant response rating” value ([10]; Rate 62 g/ha, Postemergence) was 2, the “Plant response rating, Redroot pigweed” value [10, 15] was 9 and the “Plant response rating, I. Ryegrass” value [11, 16] was 60. For the same compound, the “Plant response rating, I. Ryegrass” value ([11]; Rate 250 g/ha, 0 to 100 scale) was 70 and the “Plant response rating, I. Ryegrass” value [11, 17] was 85.

With `CC(C)N(C(=O)n1oc(=O)n(CC2CCOC2)c1=O)c1ccc(F)cc1` (stereo not drawn) [Compound 375] the “Plant response rating, Wheat (winter)” value ([1]; Rate 125 g/ha) was 35, the “Plant response rating, Wheat (winter)” value ([1]; Rate 250 g/ha) was 35 and the “Plant response rating, Wheat (winter)” value ([1]; Rate 500 g/ha) was 50. The “Plant response rating, Soybean” value [2, 12] was 1, the “Plant response rating, Soybean” value [2, 13] was 1 and the “Plant response rating, Soybean” value [2, 14] was 0. For the same compound, the “Soybean plant response rating (0 to 10 scale)” value ([2]; Preemergence, Rate 125 g/ha) was 0, the “Soybean plant response rating” value ([2]; Preemergence, Rate 250 g/ha) was 0 and the “Soybean plant response rating” value ([2]; Preemergence, Rate 500 g/ha) was 0. For the same compound, the “Soybean plant response rating” value ([2]; Rate 62 g/ha, Postemergence) was 1, the “Plant response rating, Soybean” value [2, 15] was 2 and the “Plant response rating, Morningglory” value [3, 12] was 1. For the same compound, the “Plant response rating, Morningglory” value [3, 13] was 5, the “Plant response rating, Morningglory” value [3, 14] was 0 and the “Morningglory plant response rating (0 to 10 scale)” value ([3]; Preemergence, Rate 125 g/ha) was 0. The “Morningglory plant response rating” value ([3]; Preemergence, Rate 250 g/ha) was 0, the “Morningglory plant response rating” value ([3]; Preemergence, Rate 500 g/ha) was 0 and the “Morningglory plant response rating” value ([3]; Rate 62 g/ha, Postemergence) was 1. For the same compound, the “Plant response rating, Morningglory” value [3, 15] was 6, the “Plant response rating, Blackgrass” value [4, 16] was 20 and the “Plant response rating, Blackgrass” value ([4]; Rate 250 g/ha, 0 to 100 scale) was 60. The “Plant response rating, Blackgrass” value [4, 17] was 65, the “Plant response rating, Cocklebur” value [5, 12] was 0 and the “Plant response rating, Cocklebur” value [5, 13] was 0. For the same compound, the “Plant response rating, Cocklebur” value [5, 14] was 0, the “Cocklebur plant response rating (0 to 10 scale)” value ([5]; Preemergence, Rate 125 g/ha) was 0 and the “Cocklebur plant response rating” value ([5]; Preemergence, Rate 250 g/ha) was 0. For the same compound, the “Cocklebur plant response rating” value ([5]; Preemergence, Rate 500 g/ha) was 0, the “Cocklebur plant response rating” value ([5]; Rate 62 g/ha, Postemergence) was 0 and the “Plant response rating, Cocklebur” value [5, 15] was 0. For the same compound, the “Plant response rating, Barley (winter)” value [6, 16] was 35, the “Plant response rating, Barley (winter)” value [6, 17] was 30 and the “Plant response rating, Wild oat” value [7, 16] was 55. For the same compound, the “Plant response rating, Wild oat” value ([7]; Rate 250 g/ha, 0 to 100 scale) was 60, the “Plant response rating, Wild oat” value [7, 17] was 70 and the “Plant response rating, Green foxtail” value [8, 16] was 50. The “Plant response rating, Green foxtail” value ([8]; Rate 250 g/ha, 0 to 100 scale) was 60, the “Plant response rating, Green foxtail” value [8, 17] was 70 and the “Plant response rating, Wheat (winter)” value [9, 16] was 30. The “Plant response rating, Wheat (winter)” value ([9]; Rate 250 g/ha, 0 to 100 scale) was 40, the “Plant response rating, Wheat (winter)” value [9, 17] was 50 and the “Plant response rating, Redroot pigweed” value [10, 12] was 0. For the same compound, the “Plant response rating, Redroot pigweed” value [10, 13] was 0, the “Plant response rating, Redroot pigweed” value [10, 14] was 10 and the “Redroot pigweed plant response rating (0 to 10 scale)” value ([10]; Preemergence, Rate 125 g/ha) was 10. For the same compound, the “Redroot pigweed plant response rating” value ([10]; Preemergence, Rate 250 g/ha) was 10, the “Redroot pigweed plant response rating” value ([10]; Preemergence, Rate 500 g/ha) was 10 and the “Redroot pigweed plant response rating” value ([10]; Rate 62 g/ha, Postemergence) was 0. For the same compound, the “Plant response rating, Redroot pigweed” value [10, 15] was 3, the “Plant response rating, I. Ryegrass” value [11, 16] was 50 and the “Plant response rating, I. Ryegrass” value ([11]; Rate 250 g/ha, 0 to 100 scale) was 70. The “Plant response rating, I. Ryegrass” value [11, 17] was 65.
